Results reported in patent US10905761B2, “Use of a lipopeptide or lipoprotein as an adjuvant in therapeutic or prophylactic vaccinations” (HELMHOLTZ-ZENTRUM FUER INFEKTIONSFORSCHUNG GMBH, priority 2002, dated 2021).
No end group written: not given here.

What was measured:
[1] = test system: BALB/c (H-2d) mice; assay: β-Galactosidase-specific IgA in lung and vaginal lavages of mice immunized i.n. (Example 5); assay type: in vivo
Description: The results are shown as percentage of β-galactosidase-specific IgA in relation to the total IgA present. The SEM is indicated by vertical lines.
The mice were sacrificed on day 31, and the final samples were taken. Vaginal and lung lavages were obtained by rinsing the organs with 1 ml of PBS supplemented by 50 mM EDTA, 0.1% BSA and 10 mM PMSF. The lavages were then centrifuged in order to remove tissue detritus (10 min at 3000×g) and the remaining liquid was stored at −20° C. In order to determine the total IgA concentration in the rinsings from lung and vagina, serial dilutions of the corresponding samples were incubated in microtiter plates, these plates having previously been coated with goat anti-mouse IgA (Sigma Chemie) as capture antibody (100 μl/well). Serial dilutions of purified mouse IgA (Sigma Chemie) were used to produce a standard plot.

[2] = test system: BALB/c (H-2d) mice; assay: Serum IgE level after immunization (capture ELISA, Example 6); assay type: in vivo; conditions: MALP-2 i.p. or via the mucous membranes; day 28
Description: Mice were immunized intraperitoneally (i.p.) and intranasally (i.n.) either with pure β-galactosidase (40 μg), exclusively MALP-2 or β-galactosidase mixed with MALP-2 (0.5 μg) on days 0, 7 and 14. On day 28 after the first immunization, serum samples were obtained, and the IgE levels were determined by means of a capture ELISA. The results are shown as IgE concentrations (ng/ml).
To determine the total IgE concentration in the serum of immunized and control animals, serial dilutions of the appropriate samples were incubated in microtiter plates which had previously been coated with anti-mouse IgE (100 μl/well) as capture antibody. After blocking with PBS with 1% BSA and 0.05% Tween-20 at room temperature for two hours, a 1:100 dilution of the serum in PBS-Tween was added (100 μl/well) and the plates were incubated at 37° C. for one hour. After rinsing, biotinylated anti-mouse IgE was added and the plates were incubated at 37° C. for a further hour. After rinsing four times, 100 μl of peroxidase-conjugated streptavidin (Pharmingen) were put in the wells, and the plates were incubated at 37° C. for 30 minutes. After rinsing four times, the reactions were developed by means of ABTS in 0.1 M citrate-phosphate buffer (pH 4.35) and a content of 0.01% H2O2. Serial dilutions of purified mouse IgE were used to produce a standard plot.

[3] = test system: BALB/c (H-2d) mice; assay type: in vivo; conditions: mice immunized i.n.; β-gal restimulation
[4] = test system: BALB/c (H-2d) mice; assay: Oral immunization with β-galactosidase and MALP-2 as mucosal adjuvant (serum antibody ELISA, Example 9); assay type: in vivo; conditions: 100 μg β-gal with 2 μg MALP-2, days 1, 14, 21, 31, serum day 45
Description: FIG. 12: Humoral responses stimulated after vaccination with MALP-2 as adjuvant in a dose 2 μg per animal per immunization. The mice were immunized orally either with β-galactosidase alone (100 μg/dose) or with β-galactosidase mixed with MALP-2 (2 μg/dose) on […]. On day 45 after the first immunization, serum samples were obtained, and the titers of the β-galactosidase-specific antibodies were determined with an ELISA.
Six- to eight-week old female BALB/c (H-2d) mice were purchased from Harlan Winkelmann GmbH (Borchen, Germany) and treated in accordance with local guidelines and directives of the European Community. Groups each of 5 mice were immunized on days 1, 14, 21 and 31 with 100 μg of β-gal (Boehringer, Mannheim, Germany) either alone or with 2 μg of synthetic MALP-2 as adjuvant by the oral route (dose 25 μl). On day 45, serum samples were taken and stored at −20° C. until β-gal-specific antibodies were determined. 96-well Nunc-Immuno MaxiSorp® assay plates (Nunc, Roskilde, Denmark) were coated with 100 μl of β-gal at 5 μg/ml in 0.05 M carbonate buffer (pH 8.2) per well. […] The final value titers have been expressed as the reciprocal logarithmic log2 values of the last dilution which resulted, after incubation for 30 minutes, in an optical density at 405 nm of 0.1 units above the values for the negative controls.

[5] = test system: primary dendritic cells from the bone marrow of BALB/c mice; assay: In vitro stimulation of primary dendritic cells; […]; assay type: cell-based

S-[2,3-bispalmitoyloxypropyl]cysteinyl-GNNDESNISFKEK ({S‑(2,3-bispalmitoyloxypropyl)Cys}-GNNDESNISFKEK) [MALP-2]
levels of β-galactosidase-specific antibodies in the mucous membranes, MALP-2 versus CTB ([1]; 0.5 μg MALP-2 versus 10 μg CTB, i.n.): No statistically significant differences | antigen-specific IgA, based on the total IgA, in lung lavages ([1]; MALP-2 as adjuvant, i.n.): 36% | antigen-specific IgA, based on the total IgA, in vaginal lavages ([1]; MALP-2 as adjuvant, i.n.): 23% | β-galactosidase-specific IgA in lung rinsings ([1]; i.n. immunization, day 31): significant increase | β-galactosidase-specific IgA in vaginal rinsings ([1]; i.n. immunization, day 31): significant concentrations | serum IgE content [2]: does not lead to an increase | IL-10 content in supernatants of spleen cells stimulated in vitro [3]: 2.2 ng/mL | serum immune responses to β-gal after oral immunization [4]: Immune responses to β-gal were observed | effect on expression of costimulating molecule CD80 in dendritic cells ([5]; 5 ng/ml MALP-2, 12 and 24 hours): slight, if present at all | expression of CD40 and costimulating molecule CD86 in dendritic cells ([5]; 5 ng/ml MALP-2, 12 and 24 hours, versus LPS positive control): not increased | activation of primary dendritic cells ([5]; 5 ng/ml MALP-2, compared with LPS 10 ng/ml): only a very weak activation | up regulation of CD40, CD80 and CD86 in dendritic cells ([5]; 10 ng/ml LPS or 5 ng/ml MALP-2): only a weak effect, or none
